Test results from patent US20110207760A1, “SN-38 COMPOSITIONS” (priority 2010, published 2011).

Key:
[1] = Physical stability of SN-38 in diluted aqueous cyclodextrin solutions (HPLC); type: physicochemical; conditions: for Concentration of SN-38 relative to time 0 h: room temperature
Protocol: Aliquots of the resultant SN-38 composition in aqueous SBECD were diluted 6 times with water, and further diluted with 10% (w/w) aqueous SBECD to obtain samples having a concentration suitable for HPLC analysis. The samples were analyzed by HPLC using column Symmetry Shield C18 3.5 μ, 50×4.6 mm (Waters), water (0.1% TFA)—acetonitrile (0.1% TFA) gradient and UV detection at 225 nm and 260 nm. The concentrations of SN-38 in the samples were determined by comparison of the area under the peak with the results obtained from analysis of standard solutions.
The SN-38 solution prepared as in the Example 1 was diluted with water, by weight, to obtain solutions containing respectively 5% SBECD, 10% SBECD, and 20% SBECD. All solutions were kept at room temperature and periodically analyzed by HPLC using the method described in the Example 1.
(§1) A solution of SN-38 in hydroxypropyl beta-cyclodextrin (HPbCD) was prepared using the procedure described in the Example 1. This solution was subsequently diluted with water, by weight, to obtain HPbCD concentration 20%. The relative change of SN-38 concentration in this solution after 70 hours was determined as described above, and is noted in Table 3 below.
as §1, with “in dimethyl” for “in hydroxypropyl”, “beta-cyclodextrin (DMbCD)” for “beta-cyclodextrin (HPbCD)”, “obtain DMbCD” for “obtain HPbCD”, “after 22.5” for “after 70”, “Table 4” for “Table 3”

[2] = Pharmacokinetics of SN-38 and SN-38G after i.v. dosing of SN-38 in 40% SBECD; type: in vivo, Female Sprague-Dawley rats; conditions: female, Sprague-Dawley, rat, in vivo, iv
Protocol: Female Sprague-Dawley rats, 4 animals per group received i.v. injections of SN-38 (doses 0.65 mg/kg and 2 mg/kg) in 40% SBECD. The SN-38 solution for the treatment was prepared by the dilution of concentrated composition of the Example 1 with water. The blood plasma samples were collected from each group of animals, extracted using liquid extraction with cold methanol/acetonitrile mixture (1:1 v/v), and analyzed using a HPLC method with fluorescent detection. The results, including levels of SN-38 and SN-38G in plasma and calculated values of area under the curve (AUC) for SN-38 and SN-38G are presented in Tables 5 and 6 below.

[3] = tested on: Human Colon Carcinoma LoVo DX Cells; test: Growth of subcutaneous solid tumor of LoVo DX cells in mice; type: in vivo, Balb/c mice; conditions: treated group, (SEM); for Tumor volume: SN-38 4.5 mg/kg in 20% SBECD i.p. twice daily; for Tumor volume increase: relative to day 0 of treatment
From the text: Lovo Dx cells (2.5×10^6 cells per an injection) in culture medium with 30% Matrigel were subcutaneously inoculated at 2 sides of the flank (in the mid-flank) of each of 15 Balb/c mice. 20 days after inoculation the animals were randomly divided into 2 groups: control (8 mice) and treated (7 animals). On day 21, 24, 27 and 30 after inoculation (days 1, 4, 7, and 10 of treatment), twice daily, at 10 am and at 4 pm, the animals received intraperitoneal injections. Control animals received each time injection of 0.49 mL of 0.9% saline. Treated animals received each time injection of SN-38 solution in 20% SBECD (w/w), 4.5 mg/kg of SN-38. The SN-38 solution for the treatment was prepared by the dilution of concentrated composition of the Example 1 with water. Tumor sizes and body weight of each animal was monitored during treatment. The results represented as average tumor volume estimated from measurements of tumor diameters (V=0.5*D1*D2*D2, where Dl and D2 are longer and shorter diameter of the tumor) are presented in Table 7 below (the standard error of mean is in parentheses).

[4] = room temperature; cited from earlier work

With `CCc1c2c(nc3ccc(O)cc13)-c1cc3c(c(=O)n1C2)COC(=O)[C@]3(O)CC` [SN-38, (4S)-4,11-Diethyl-4,9-dihydroxy-1H-pyrano[3′,4′:6,7]indolizino[1,2-b]quinoline-3,14(4H,12H)dione] the “Concentration of SN-38 relative to time 0 h” value ([1]; 5% SBECD, 0 h) was 100.0, the “Concentration of SN-38 relative to time 0 h” value ([1]; 5% SBECD, 5 h) was 96.6 and the “Concentration of SN-38 relative to time 0 h” value ([1]; 5% SBECD, 23 h) was 91.4. The “Concentration of SN-38 relative to time 0 h” value ([1]; 5% SBECD, 47 h) was 85.2, the “Concentration of SN-38 relative to time 0 h” value ([1]; 5% SBECD, 71 h) was 79.2 and the “Concentration of SN-38 relative to time 0 h” value ([1]; 5% SBECD, 98 h) was 77.9. For the same molecule, the “Concentration of SN-38 relative to time 0 h” value ([1]; 10% SBECD, 0 h) was 100.0, the “Concentration of SN-38 relative to time 0 h” value ([1]; 10% SBECD, 5 h) was 97.9 and the “Concentration of SN-38 relative to time 0 h” value ([1]; 10% SBECD, 23 h) was 94.9. The “Concentration of SN-38 relative to time 0 h” value ([1]; 10% SBECD, 47 h) was 90.8, the “Concentration of SN-38 relative to time 0 h” value ([1]; 10% SBECD, 71 h) was 87.7 and the “Concentration of SN-38 relative to time 0 h” value ([1]; 10% SBECD, 98 h) was 85.5. For the same molecule, the “relative change of SN-38 concentration” value ([1]; 20% DMbCD, 0 h) was 100.0, the “relative change of SN-38 concentration” value ([1]; 20% DMbCD, 22.5 h) was 42.5 and the “relative change of SN-38 concentration” value ([1]; 20% HPbCD, 0 h) was 100.0. The “relative change of SN-38 concentration” value ([1]; 20% HPbCD, 70 h) was 63.0, the “Concentration of SN-38 relative to time 0 h” value ([1]; 20% SBECD, 0 h) was 100.0 and the “Concentration of SN-38 relative to time 0 h” value ([1]; 20% SBECD, 5 h) was 99.5. For the same molecule, the “Concentration of SN-38 relative to time 0 h” value ([1]; 20% SBECD, 23 h) was 97.6, the “Concentration of SN-38 relative to time 0 h” value ([1]; 20% SBECD, 47 h) was 96.3 and the “Concentration of SN-38 relative to time 0 h” value ([1]; 20% SBECD, 71 h) was 95.1. For the same molecule, the “Concentration of SN-38 relative to time 0 h” value ([1]; 20% SBECD, 98 h) was 93.2, the AUC ([2]; 0.65 mg/kg) was 106 ng·h/mL and the “Ratio AUC SN-38/SN-38G” value ([2]; 0.65 mg/kg) was 0.39. For the same molecule, the concentration at 0.17 h ([2]; 0.65 mg/kg) was 157 ng/mL, the concentration at 0.5 h ([2]; 0.65 mg/kg) was 41.3 ng/mL and the concentration at 0.75 h ([2]; 0.65 mg/kg) was 26.1 ng/mL. For the same molecule, the concentration at 1 h ([2]; 0.65 mg/kg) was 18.2 ng/mL, the concentration at 3 h ([2]; 0.65 mg/kg) was 5.8 ng/mL and the concentration at 6 h ([2]; 0.65 mg/kg) was 1.2 ng/mL. It also gave an AUC ([2]; 2 mg/kg) of 323 ng·h/mL, a concentration at 0.17 h ([2]; 2 mg/kg) of 625 ng/mL and a concentration at 0.5 h ([2]; 2 mg/kg) of 157 ng/mL. For the same molecule, the concentration at 0.75 h ([2]; 2 mg/kg) was 51.4 ng/mL, the concentration at 1 h ([2]; 2 mg/kg) was 29.8 ng/mL and the concentration at 3 h ([2]; 2 mg/kg) was 5.5 ng/mL. For the same molecule, the concentration at 6 h ([2]; 2 mg/kg) was 5.3 ng/mL, the Tumor volume ([3]; day 0 of treatment) was 0.123 (0.010) cm^3 and the Tumor volume ([3]; day 4 of treatment) was 0.128 (0.010) cm^3. The Tumor volume ([3]; day 6 of treatment) was 0.140 (0.011) cm^3, the Tumor volume ([3]; day 8 of treatment) was 0.142 (0.012) cm^3 and the Tumor volume ([3]; day 11 of treatment) was 0.163 (0.017) cm^3. For the same molecule, the Tumor volume ([3]; day 13 of treatment) was 0.185 (0.019) cm^3, the Tumor volume ([3]; day 15 of treatment) was 0.195 (0.020) cm^3 and the Tumor volume ([3]; day 18 of treatment) was 0.217 (0.024) cm^3. For the same molecule, the Tumor volume ([3]; day 20 of treatment) was 0.284 (0.040) cm^3, the Tumor volume ([3]; day 22 of treatment) was 0.349 (0.055) cm^3 and the Tumor volume increase ([3]; day 0) was 100 Percentage. The Tumor volume increase ([3]; day 4) was 105 (4) Percentage, the Tumor volume increase ([3]; day 6) was 115 (6) Percentage and the Tumor volume increase ([3]; day 8) was 117 (7) Percentage. For the same molecule, the Tumor volume increase ([3]; day 11) was 133 (11) Percentage, the Tumor volume increase ([3]; day 13) was 150 (10) Percentage and the Tumor volume increase ([3]; day 15) was 157 (10) Percentage. The Tumor volume increase ([3]; day 18) was 175 (12) Percentage, the Tumor volume increase ([3]; day 20) was 224 (22) Percentage and the Tumor volume increase ([3]; day 22) was 271 (29) Percentage. The solubility in water [4] was “about 0.00008 mg/mL”.
